{
  "source": "ChEMBL document CHEMBL4359901",
  "about": "“Cyclic enaminone as new chemotype for selective cyclooxygenase-2 inhibitory, anti-inflammatory, and analgesic activities” (Eur J Med Chem, 2019)",
  "key": {"[1]": {"tested_on": "Rattus norvegicus", "assay": "Antiinflammatory activity in Wistar albino rat assessed as reduction in carrageenan-induced paw edema at 25 mg/kg, ip measured after 2 hrs by plethysmometric method (reference value: 1.58 +/- 0.21 ml)", "assay_type": "functional"}, "[2]": {"assay": "Ulcerogenicity in Sprague-Dawley rat assessed as formation of ulcer at 30 mg/kg, po after 1 hr by microscopic analysis", "assay_type": "toxicity, organism-based", "details": "in vivo"}, "[3]": {"tested_on": "Rattus norvegicus", "assay": "Antiinflammatory activity in Sprague-Dawley rat model of carrageenan-induced thermal hyperalgesia assessed as paw withdrawal latency pressure at 30 mg/kg, po administered 1 hr prior to carrageenan challenge and measured after 1 hr by Randall-Selitto test (reference value: 246.55 +/- 1.05 g)", "assay_type": "functional"}, "[4]": {"assay": "Antioxidant activity assessed as DPPH radical scavenging activity at 60 uM/ml incubated for 20 mins by spectrophotometric method relative to control", "assay_type": "functional"}, "[5]": {"assay": "Cardiotoxicity in Sprague-Dawley rat assessed as heart rate at 50 mg/kg", "assay_type": "toxicity, organism-based", "details": "in vivo"}, "[6]": {"tested_on": "Rattus norvegicus", "assay": "Antiinflammatory activity in Wistar albino rat assessed as reduction in carrageenan-induced paw edema at 25 mg/kg, ip measured after 3 hrs by plethysmometric method (reference value: 1.75 +/- 0.33 ml)", "assay_type": "functional"}, "[7]": {"tested_on": "Rattus norvegicus", "assay": "Antiinflammatory activity in Sprague-Dawley rat model of carrageenan-induced thermal hyperalgesia assessed as paw withdrawal latency pressure at 30 mg/kg, po administered 1 hr prior to carrageenan challenge and measured after 3 hrs by Von-frey test (reference value: 31.65 +/- 3.33 g)", "assay_type": "functional"}, "[8]": {"assay": "Antioxidant activity assessed as DPPH radical scavenging activity at 100 uM/ml incubated for 20 mins by spectrophotometric method relative to control", "assay_type": "functional"}, "[9]": {"tested_on": "Rattus norvegicus", "assay": "Antiinflammatory activity in Sprague-Dawley rat model of carrageenan-induced thermal hyperalgesia assessed as paw withdrawal latency pressure at 50 mg/kg, po administered 1 hr prior to carrageenan challenge and measured after 1 hr by Von-frey test (reference value: 159.88 +/- 4.66 g)", "assay_type": "functional"}, "[10]": {"tested_on": "Rattus norvegicus", "assay": "Antiinflammatory activity in Sprague-Dawley rat model of carrageenan-induced thermal hyperalgesia assessed as paw withdrawal latency pressure at 50 mg/kg, po administered 1 hr prior to carrageenan challenge and measured after 2 hrs by Von-frey test (reference value: 146.47 +/- 5.12 g)", "assay_type": "functional"}, "[11]": {"tested_on": "Rattus norvegicus", "assay": "Analgesic activity in Wistar albino rat assessed as reaction time at 12.5 mg/kg, ip measured after 120 mins for 15 secs by hot plate method (reference value: 4.32 +/- 0.52 sec)", "assay_type": "functional"}, "[12]": {"assay": "Ulcerogenicity in Sprague-Dawley rat assessed as formation of lesions at 30 mg/kg, po after 1 hr by microscopic analysis", "assay_type": "toxicity, organism-based", "details": "in vivo"}, "[13]": {"tested_on": "Rattus norvegicus", "assay": "Antiinflammatory activity in Sprague-Dawley rat model of carrageenan-induced thermal hyperalgesia assessed as paw withdrawal latency time at 50 mg/kg, po administered 1 hr prior to carrageenan challenge and measured after 1 hr by planter test (reference value: 8.88 +/- 0.52 sec)", "assay_type": "functional"}, "[14]": {"tested_on": "Rattus norvegicus", "assay": "Antiinflammatory activity in Sprague-Dawley rat model of carrageenan-induced thermal hyperalgesia assessed as paw withdrawal latency pressure at 50 mg/kg, po administered 1 hr prior to carrageenan challenge and measured after 5 hrs by Von-frey test (reference value: 169.58 +/- 4.26 g)", "assay_type": "functional"}, "[15]": {"assay": "Cardiotoxicity in Sprague-Dawley rat assessed as DBP rate at 50 mg/kg", "assay_type": "toxicity, organism-based", "details": "in vivo"}, "[16]": {"tested_on": "Rattus norvegicus", "assay": "Antiinflammatory activity in Sprague-Dawley rat model of carrageenan-induced thermal hyperalgesia assessed as paw withdrawal latency pressure at 50 mg/kg, po administered 1 hr prior to carrageenan challenge and measured after 2 hrs by Randall-Selitto test (reference value: 231.13 +/- 3.15 g)", "assay_type": "functional"}, "[17]": {"tested_on": "Rattus norvegicus", "assay": "Antiinflammatory activity in Sprague-Dawley rat model of carrageenan-induced thermal hyperalgesia assessed as paw withdrawal latency pressure at 30 mg/kg, po administered 1 hr prior to carrageenan challenge and measured after 1 hr by Von-frey test (reference value: 159.88 +/- 4.66 g)", "assay_type": "functional"}, "[18]": {"target": "Prostaglandin G/H synthase 1 (Ovis aries) (UniProt P05979)", "assay": "Inhibition of ovine COX1 assessed as reduction in PGF2alpha at 10 uM incubated for 2 mins using arachidonic acid as substrate by ELISA relative to control"}, "[19]": {"tested_on": "Rattus norvegicus", "assay": "Analgesic activity in Wistar albino rat assessed as reaction time at 25 mg/kg, ip measured after 180 mins for 15 secs by hot plate method (reference value: 3.87 +/- 0.38 sec)", "assay_type": "functional"}, "[20]": {"tested_on": "Rattus norvegicus", "assay": "Analgesic activity in Wistar albino rat assessed as reaction time at 25 mg/kg, ip measured after 30 mins for 15 secs by hot plate method (reference value: 4.21 +/- 0.41 sec)", "assay_type": "functional"}, "[21]": {"tested_on": "Rattus norvegicus", "assay": "Antiinflammatory activity in Sprague-Dawley rat model of carrageenan-induced thermal hyperalgesia assessed as paw withdrawal latency pressure at 30 mg/kg, po administered 1 hr prior to carrageenan challenge and measured after 2 hrs by Von-frey test (reference value: 146.47 +/- 5.12 g)", "assay_type": "functional"}, "[22]": {"tested_on": "Rattus norvegicus", "assay": "Antiinflammatory activity in Sprague-Dawley rat model of carrageenan-induced thermal hyperalgesia assessed as paw withdrawal latency time at 50 mg/kg, po administered 1 hr prior to carrageenan challenge and measured after 2 hrs by planter test (reference value: 6.17 +/- 0.58 sec)", "assay_type": "functional"}, "[23]": {"tested_on": "Rattus norvegicus", "assay": "Analgesic activity in Wistar albino rat assessed as reaction time at 25 mg/kg, ip measured after 60 mins for 15 secs by hot plate method (reference value: 4.67 +/- 0.52 sec)", "assay_type": "functional"}, "[24]": {"tested_on": "Rattus norvegicus", "assay": "Antiinflammatory activity in Wistar albino rat assessed as reduction in carrageenan-induced paw volume at 12.5 mg/kg, ip measured after 1 hr by plethysmometric method (reference value: 1.43 +/- 0.19 ml)", "assay_type": "functional"}, "[25]": {"tested_on": "Rattus norvegicus", "assay": "Antiinflammatory activity in Sprague-Dawley rat model of carrageenan-induced thermal hyperalgesia assessed as paw withdrawal latency pressure at 50 mg/kg, po administered 1 hr prior to carrageenan challenge and measured after 1 hr by Randall-Selitto test (reference value: 246.55 +/- 1.05 g)", "assay_type": "functional"}, "[26]": {"tested_on": "Rattus norvegicus", "assay": "Antiinflammatory activity in Wistar albino rat assessed as reduction in carrageenan-induced paw edema at 25 mg/kg, ip measured after 1 hr by plethysmometric method (reference value: 1.43 +/- 0.19 ml)", "assay_type": "functional"}, "[27]": {"tested_on": "Rattus norvegicus", "assay": "Antiinflammatory activity in Sprague-Dawley rat model of carrageenan-induced thermal hyperalgesia assessed as paw withdrawal latency time at 30 mg/kg, po administered 1 hr prior to carrageenan challenge and measured after 2 hrs by planter test (reference value: 6.17 +/- 0.58 sec)", "assay_type": "functional"}, "[28]": {"tested_on": "Rattus norvegicus", "assay": "Antiinflammatory activity in Sprague-Dawley rat model of carrageenan-induced thermal hyperalgesia assessed as paw withdrawal latency pressure at 30 mg/kg, po administered 1 hr prior to carrageenan challenge and measured after 4 hrs by Von-frey test (reference value: 146.61 +/- 1.58 g)", "assay_type": "functional"}, "[29]": {"tested_on": "Rattus norvegicus", "assay": "Analgesic activity in Wistar albino rat assessed as reaction time at 12.5 mg/kg, ip measured after 30 mins for 15 secs by hot plate method (reference value: 4.21 +/- 0.41 sec)", "assay_type": "functional"}},
  "data": [
    {"smiles": "CC(=O)N(C1=CC(=O)CCC1)c1ccc(Cl)cc1", "values": [
      {"measurement": "Activity", "setting": "[1]", "value": 1.2, "unit": "mL"},
      {"measurement": "Activity", "setting": "[2]", "value": "Non-Toxic"},
      {"measurement": "Activity", "setting": "[3]", "value": 261.72, "unit": "g"},
      {"measurement": "Activity", "setting": "[4]", "value": 65.3, "unit": "%"},
      {"measurement": "Activity", "setting": "[5]", "value": "Non-Toxic"},
      {"measurement": "Activity", "setting": "[6]", "value": 1.11, "unit": "mL"},
      {"measurement": "Activity", "setting": "[7]", "value": 152.92, "unit": "g"},
      {"measurement": "Activity", "setting": "[8]", "value": 96.2, "unit": "%"},
      {"measurement": "Activity", "setting": "[9]", "value": 170, "unit": "g"},
      {"measurement": "Activity", "setting": "[10]", "value": 168.03, "unit": "g"},
      {"measurement": "Time", "setting": "[11]", "value": 10.15, "unit": "s"},
      {"measurement": "Activity", "setting": "[12]", "value": "Non-Toxic"},
      {"measurement": "Time", "setting": "[13]", "value": 12.25, "unit": "s"},
      {"measurement": "Activity", "setting": "[14]", "value": 168.65, "unit": "g"},
      {"measurement": "Activity", "setting": "[15]", "value": "Non-Toxic"},
      {"measurement": "Activity", "setting": "[16]", "value": 268.96, "unit": "g"},
      {"measurement": "Activity", "setting": "[17]", "value": 166.7, "unit": "g"},
      {"measurement": "inhibition", "setting": "[18]", "value": 10.8, "unit": "%"},
      {"measurement": "Time", "setting": "[19]", "value": 11.88, "unit": "s"},
      {"measurement": "Time", "setting": "[20]", "value": 6.86, "unit": "s"},
      {"measurement": "Activity", "setting": "[21]", "value": 157.83, "unit": "g"},
      {"measurement": "Time", "setting": "[22]", "value": 9.67, "unit": "s"},
      {"measurement": "Time", "setting": "[23]", "value": 7.27, "unit": "s"},
      {"measurement": "Activity", "setting": "[24]", "value": 1.3, "unit": "mL"},
      {"measurement": "Activity", "setting": "[25]", "value": 272.83, "unit": "g"},
      {"measurement": "Activity", "setting": "[26]", "value": 1.25, "unit": "mL"},
      {"measurement": "Time", "setting": "[27]", "value": 8.01, "unit": "s"},
      {"measurement": "Activity", "setting": "[28]", "value": 159.47, "unit": "g"},
      {"measurement": "Time", "setting": "[29]", "value": 6.16, "unit": "s"}
    ]}
  ]
}
